Results on three molecules are retold here after patent US12648928B2, “Intervention strategy for prevention or treatment of diabetes mellitus, autoimmune disease, inflammatory disease or cardiovascular disease” (ACADEMISCH MEDISCH CENTRUM, priority 2020, dated 2026).

The test system of one assay is NF-κB. The assay is described as follows: NF-κB reporter macrophage luciferase assay (RAW264.7). The format is cell-based, murine. Particulars: RAW264.7 3x-κB-luc; LPS 10/100 ng/ml 2 hours; different doses (FIG. 7). Here is the method: NF-κB signaling activation was assessed by luciferase activity assay. RAW264.7 cells stably transfected with the 3×-κB-luc plasmid (DNA construct containing three NF-κB sites from the Ig κ light chain promoter coupled to the gene encoding firefly luciferase) were grown in DMEM medium supplemented with 10% heat-inactivated fetal bovine serum, penicillin (100 U/ml), streptomycin (100 μg/ml), L-glutamine (2 mM). Cells were seeded in F-bottom 96-well […] metabolites at different concentrations (6-BT 0,1-100 μM, LysoPC(20:0) 1-10 μM, 16:0-18:2 PE 1-50 μM, MA-GPC 1-100 μM). Afterwards, cells were lysed with 25 μl/well 1×passive lysis buffer and firefly luciferase activity was measured by LUCIFERASE® Assay System (Promega, E1500) on a GLOMAX @-Multi Detection System (Promega).

In assay [1] the test system is murine bone marrow-isolated monocytes or bone marrow-derived macrophages. The assay is described as follows: In vitro stimulation of murine monocytes / bone marrow-derived macrophages, cytokine ELISA. The format is cell-based. Particulars: for cytokine secretion by monocytes: murine monocytes CD11b+ activated with LPS (10 μg/ml) for 24 hours, TLR4 stimulation (FIG. 8). Here is the method:
Naïve bone marrow monocytes were isolated from BM cells. Briefly, hind legs were removed from 3 mice, cleaned from surrounding muscles. The femur and tibia bones were trimmed at their extremities, the BM content was flushed out with cold PBS using a 10 ml syringe and a 25G needle and filtered through a 40 μm strainer. Red blood cells (RBC) were lysed with 1× RBC lysis buffer (Biolegend) for 5 min. on ice. CD11b+ monocytes were further purified by positive selection using a cocktail of CD11 b magnetic beads (Miltenyi Biotec, #130-049-601) and magnetizing MS columns (Miltenyi Biote) according to the manufacturer's instructions. Subsequently, monocytes were seeded in F-bottom 96-well plates at 1×10^5 cells per well in RPMI1640 supplemented with 10% heat-inactivated fetal bovine serum, penicillin (100 U/ml), streptomycin (100 μg/ml), L-glutamine (2 mM) […]. Monocytes were activated with 10 μg/ml LPS (Sigma-Aldrich) and subjected to treatment with 6-BT (10/100 μM), LysoPC(20:0) (10/50 μM), MA-GPC (10/50/100 μM), or appropriate vehicle. Cells were kept in a final volume of 200 μl/well for 24 hours, after which supernatant was harvested and stored at −80° C.
Bone marrow-derived macrophages (BMDM) and DC (BMDC) were obtained by differentiating freshly isolated BM cells from femur and tibia bones (as above described) of C57/B16 mice (N=3 per experiment). For BMDM, BM cells were seeded at 3×10^6 cells per 10 cm dish and cultured for 7 days in 12 ml RPMI1640 medium with 20% fetal bovine serum, 30% L-929 cell conditioned media, as source of murine macrophage colony-stimulating factor (M-CSF). For BMDC, BM cells were seeded at 0.5×10^6/ml cells in 25 ml in 10 cm dishes and cultured for 7 days in presence of GM-CSF in 5% FBS-RPMI1640 medium. After differentiation, BMDM/DCs were harvested, counted and seeded at a density of 1×10^5 cells per well in a F-bottom 96-well plate and left to adhere for 20 hours before experiments were performed. Macrophages were activated with 10 μg/ml polyinosinic-polycytidylic acid poly(I.C) (InvivoGen) for 24 hours in presence or not of 6-BT (10/100 μM), LysoPC(20:0) (10/50 μM), or MA-GPC (10/50/100 μM) in a final volume of 200 μl/well. At the end of the assay, supernatant was harvested and stored at −80° C.
(§1) Specific ELISAs (R&D Systems) were utilized to measure the concentration of TNFα, IFNβ, and IFNγ in cell supernatant of murine monocytes, macrophages ad T cells, respectively, according to the manufacturer's instructions. The concentration of insulin after 24-hour treatment with metabolites or after GSIS were determined using Rat insulin ELISA (Mercodia) according to the manufacturer's instructions. GSIS was calculated by subtracting the concentration of insulin at 1 mM glucose to the insulin rate at 22 mM glucose.
Here, murine bone marrow-isolated monocytes (Christ A., Western Diet Triggers NLRP3-Dependent Innate Immune Reprogramming. Cell 2018) or bone marrow-derived macrophages (Swanson K V, A noncanonical function of cGAMP in inflammasome priming and activation. JEM 2017) were exposed for 24 hours to the indicated concentrations of 6-BT (10-100 μM) in presence or not of 10 μg/ml LPS, 10 μg/ml P3C or 10 μg/ml poly(I.C).
In general terms: ELISA stands for enzyme-linked immunosorbent assay.

The subject of another assay is murine CD4+ T cells. The assay is described as follows: In vitro CD4+ T cell activation assay (anti-CD3/anti-CD28). The format is cell-based. Particulars: for Th1 responses in CD4 T cells: anti-CD3 & anti-CD28 mAbs, 24 hours (FIG. 11). The protocol: Primary CD4+ T cells were freshly isolated by negative selection from spleens of C57/B16 mice (N=3 per experiment). Briefly, spleens were smashed in a culture dish and passed twice through a strainer (70 μm and 40 μm, respectively) to obtain a single-cell suspension.
Using the negative selection (CD4+ T Cell Isolation kit, Miltenyi Biotec, #130-10-454). Non-CD4 T cells were depleted by retaining them in LS magnetizing column (Miltenyi Biotec).
Isolated CD4 T cells were cultured in 96-well plates (1×10^5 per well) in RPMI1640 medium supplemented with 10% fetal bovine serum, 100 U/ml penicillin, 100 μg/ml streptomycin, 2 mM L-glutamine. Treatment with the metabolites 6-BT (1/10 μM), LysoPC(20:0) (10/50 μM) or MA-GPC (10/50/100 μM) and activation with 2.5 μg/ml soluble anti-CD3 (145-2C11, eBioscience) and 1 μg/ml soluble anti-CD28 (37.51, eBioscience) antibodies started immediately after seeding in 200 i/well complete RPMI1640 media for a 24-hour period, at the end of which supernatant was harvested and stored at −80° C.
as §1
Particularly in the context of autoimmune diabetes, the activity of T cells is driving disease onset and progression. […] To mimic antigen presentation, murine CD4 T cells (isolated from spleens; Uchimura T., The Innate Immune Sensor NLRC3 Acts as a Rheostat that Fine-Tunes T Cell Responses in Infection and Autoimmunity. Immunity 2019) were activated by monoclonal antibodies against CD3 and CD28 (2.5 and 1 μg/ml, respectively).

In another assay the test system is INS1E beta cells. The assay can be described thus: Seahorse XF intracellular metabolism, INS1E beta cells. The format is cell-based, rat. Particulars: INS1E beta cells; compared with 6-BT. The text has this:
Lastly, it was investigated whether 6-BT may influence the mitochondrial metabolism of beta cells, which rely on ATP and mitochondrial metabolite production for insulin exocytosis. […] Intracellular metabolism measured using a Seahorse XF Analyzer Uchimura T., The Innate Immune Sensor NLRC3 Acts as a Rheostat that Fine-Tunes T Cell Responses in Infection and Autoimmunity.

`CCCCC/C=C\C/C=C\C/C=C\C/C=C\CCCC(=O)O[C@H](COC(=O)CCCCCCCCCCCCC)COP(=O)([O-])OCC[N+](C)(C)C` [MA-GPC, 1-myristoyl-2-arachidonoyl-glycero-phosphocholine]: in the assay with NF-κB, the “NFκB pathway activation in macrophages” value was “can inhibit NFκB pathway activation”. In assay [1] (PolyI:C for 24 hours, TLR3 stimulation (FIG. 9)), the “type 1 IFN secretion” value is given as “impair type 1 IFN secretion”. For the same molecule, the “cytokine secretion by monocytes” value in assay [1] was “halt cytokine secretion”. The “Th1 responses in CD4 T cells” value in the assay on murine CD4+ T cells was “hampers immune responses”.
Turning to `N[C@@H](Cc1c[nH]c2ccccc12)C(=O)O` [tryptophan, reference compound], the “production of the Th1 cytokine IFNgamma” value with murine CD4+ T cells (CD4 T cells from spleens, anti-CD3 2.5 μg/ml and anti-CD28 1 μg/ml (FIGS. 16, 20)) was “but not tryptophan, exerted inhibitory effect”. Also, the “effect on intracellular metabolism” value in the assay on INS1E beta cells is listed as “exerted a different effect than 6-BT”.
Turning to `CCCCC/C=C\C/C=C\C/C=C\C/C=C\CCCC(=O)OC[C@@H](O)COP(=O)([O-])OCC[N+](C)(C)C` [A-GPC, 1-arachidonoyl-glycero-phosphocholine], the “NFκB pathway activation in macrophages” value in the assay with NF-κB is “can inhibit NFκB pathway activation”. The “cytokine secretion by monocytes” value in assay [1] is listed as “halt cytokine secretion”. For the same molecule, the “Th1 responses in CD4 T cells” value with murine CD4+ T cells is “dampen Th1 responses”.
